From patent US20030068615A1, “Polypeptides that bind HIV gp120 and related nucleic acids, antibodies, compositions, and methods of use” (priority 1999, published 2003)
“And” between values parts separate entries of the source, which are not always exact repeats. Equal values may be shown once. Read-outs that look alike come from different tables or passages of the source.

Biological target: HIV-1LAI envelope gp120 (Human immunodeficiency virus type 1 group M subtype B, UniProt P03377)
Assay type: binding
Conditions: for number of radioactive decays (counts) counted: human CD4 21-mer scan, empty control 2075; for Binding Results For Window Length (counts bound-background), 9: 9-mer starting at the first residue of the printed sequence; for Binding Results For Window Length (counts bound-background), 12: 12-mer starting at the first residue of the printed sequence; for Counts per 20′ Average-background: CCR5 18-mer scan, radiolabeled HIV-1LAI gp120; for Binding Results For Window Length (counts bound-background), 15: 15-mer starting at the first residue of the printed sequence
[1] = STRL33 amino terminus, background subtracted
[2] = CXCR4 18-mer scan, background subtracted, empty control 0
[3] = CXCR4 18-mer scan, empty control 412
[4] = STRL33 18-mer scan, background subtracted, first of two count columns
[5] = STRL33 18-mer scan, background subtracted, second of two count columns
[6] = Panel E, 9-mers and 12-mers of CD4, empty control 571
[7] = Panel C, 15-mers and 18-mers of CD4, empty control 556
[8] = Panel F, sequential alanine replacements of CD4 polypeptides, duplicate series, empty control 569
[9] = Panel D, 9-mers and 12-mers of CD4, empty control […]
[10] = Panel B, 15-mers and 18-mers of CD4, empty control 575

SLKLENKEAKVSKREKAVWVL [human CD4 341-361]
number of radioactive decays (counts) counted: 1663 counts

SQEEHQAFLQFS
Binding Results For Window Length (counts bound-background), 9 [1]: 647 counts
Binding Results For Window Length (counts bound-background), 12 [1]: 7512 counts

SQKEGLHYTCSSHFPYSQ [CCR5 segment 169-]
Counts per 20′ Average-background (background subtracted): 304 counts per 20′

SQYQFWKNFQTLKIVILG [CCR5 segment 185-]
Counts per 20′ Average-background (background subtracted): 1572 counts per 20′

SRGSSLKILSKGKRGGHS [CXCR4 segment 321-338]
radioactive counts recorded in twenty minutes [2]: 169 counts
radioactive counts recorded in twenty minutes [3]: 581 counts

SSFNDSSQEEHQAFLQFS [STRL33 segment 13-30]
radioactive counts recorded in twenty minutes [4]: 2689.5 counts
radioactive counts recorded in twenty minutes [5]: 2757.5 counts
Binding Results For Window Length (counts bound-background), 9 [1]: 243 counts
Binding Results For Window Length (counts bound-background), 12 [1]: 277 counts
Binding Results For Window Length (counts bound-background), 15 [1]: 902 counts
Binding Results For Window Length (counts bound-background), 18 (STRL33 amino terminus, 18-mer starting at the first residue of the printed sequence, background subtracted): 6038 counts

SSIVYKKEG
COUNTS of radiolabeled gp120 retained [6]: 515 counts

SSIVYKKEGEQV
COUNTS of radiolabeled gp120 retained [6]: 615 counts

SSIVYKKEGEQVEFS
COUNTS of radiolabeled gp120 retained [7]: 558 counts

SSIVYKKEGEQVEFSFPL
COUNTS of radiolabeled gp120 retained [7]: 756 counts

SSIVYKKEGEQVEFSFPLAFT
COUNTS of radiolabeled gp120 retained (Panel A, 21-mers of CD4, empty control 515 and 617): 28068 counts

SSQEEEQAFLQFSKV
Binding Results For Window Length (counts bound-background), 9 [1]: 287 counts
Binding Results For Window Length (counts bound-background), 12 [1]: 4455 counts
Binding Results For Window Length (counts bound-background), 15 [1]: 4732 counts

SSSKSWITFDLKNKEVSVKRV [human CD4 246-266]
number of radioactive decays (counts) counted: 1761 counts

STPVQPMALIVLGGVAGLLLF [human CD4 391-411]
number of radioactive decays (counts) counted: 2527 counts

SVADLLFVITLPFWAVDA [CXCR4 segment 81-98]
radioactive counts recorded in twenty minutes [2]: 253 counts
radioactive counts recorded in twenty minutes [3]: 665 counts

SVITWVVAVFASLPGIIF
Counts per 20′ Average-background (background subtracted): 46 counts per 20′

SVYTRSTGEQEISVGL [CCR5 segment 337-]
Counts per 20′ Average-background (background subtracted): 47 counts per 20′

TALLQGQSLTLTLES
COUNTS of radiolabeled gp120 retained [8]: 6931 counts and 5012 counts

TANSDTHLL
COUNTS of radiolabeled gp120 retained [9]: 554 counts

TANSDTHLLQGQ
COUNTS of radiolabeled gp120 retained [9]: 549 counts

TANSDTHLLQGQSLT
COUNTS of radiolabeled gp120 retained [10]: 513 counts

TANSDTHLLQGQSLTLTL
COUNTS of radiolabeled gp120 retained [10]: 891 counts

TCITVDRFIVVVKATKAY
radioactive counts recorded in twenty minutes [4]: 89.5 counts
radioactive counts recorded in twenty minutes [5]: 346.5 counts

TCSSHFPYSQYQFWKNFQ [CCR5 segment 177-]
Counts per 20′ Average-background (background subtracted): 367 counts per 20′

TCTVLQNQKKVEFKI
COUNTS of radiolabeled gp120 retained [7]: 510 counts

TCTVLQNQKKVEFKIDIV
COUNTS of radiolabeled gp120 retained [7]: 571 counts

TDIYLLNLAISDLFFLLT [CCR5 segment 65-82]
Counts per 20′ Average-background (background subtracted): 38 counts per 20′

TDKYRLHLSVADLLFVIT [CXCR4 segment 73-90]
radioactive counts recorded in twenty minutes [2]: 92 counts
radioactive counts recorded in twenty minutes [3]: 504 counts

TEAIAYLRACLNPVLYAF [STRL33 segment 273-290]
radioactive counts recorded in twenty minutes [4]: 604.5 counts
radioactive counts recorded in twenty minutes [5]: 480.5 counts

TEEMGSGDYDSMKEPCFR [CXCR4 segment 13-30]
radioactive counts recorded in twenty minutes [2]: 41 counts
radioactive counts recorded in twenty minutes [3]: 453 counts

TELLQGASLTLTLES
COUNTS of radiolabeled gp120 retained [8]: 4238 counts

TGLYFIGFFSGIFFIILL
Counts per 20′ Average-background (background subtracted): 80 counts per 20′

TGSGELWWQ
COUNTS of radiolabeled gp120 retained [6]: 507 counts

THALQGQSLTLTLES
COUNTS of radiolabeled gp120 retained [8]: 7683 counts and 5059 counts

THLAQGQSLTLTLES
COUNTS of radiolabeled gp120 retained [8]: 7701 counts and 5120 counts

THLLAGQSLTLTLES
COUNTS of radiolabeled gp120 retained [8]: 4578 counts and 2956 counts

THLLQAQSLTLTLES
COUNTS of radiolabeled gp120 retained [8]: 8471 counts and 6393 counts

THLLQGASLTLTLES
COUNTS of radiolabeled gp120 retained [8]: 1933 counts

THLLQGQALTLTLES
COUNTS of radiolabeled gp120 retained [8]: 8659 counts and 5151 counts

THLLQGQSL
COUNTS of radiolabeled gp120 retained [9]: 512 counts

THLLQGQSLALTLES
COUNTS of radiolabeled gp120 retained [8]: 8158 counts and 4749 counts

THLLQGQSLTLALES
COUNTS of radiolabeled gp120 retained [8]: 11699 counts and 8147 counts

THLLQGQSLTLT
COUNTS of radiolabeled gp120 retained [9]: 646 counts

THLLQGQSLTLTAES
COUNTS of radiolabeled gp120 retained [8]: 862 counts and 797 counts

THLLQGQSLTLTLAS
COUNTS of radiolabeled gp120 retained [8]: 2596 counts and 2193 counts

THLLQGQSLTLTLEA
COUNTS of radiolabeled gp120 retained [8]: 5849 counts and 7984 counts
